Measured values from US9938279B2, “Method for treating disease or condition susceptible to amelioration by AMPK activators and compounds of formula which are useful to activate AMP-activated protein kinase (AMPK)” (ENERGENESIS BIOMEDICAL CO., LTD, priority 2013, dated 2018).

Tests used:
[1] = test system: AMPK; assay: AMPK activation assay (western blot phospho-AMPK Thr172) in C2C12; format: cell-based, mouse; settings: C2C12 cells, 30 min treatment
Description: (§1) Effects of compounds on AMPK activation were analyzed in mouse muscle cell C2C12, mouse fibroblast 3T3-L1 and human hepatocyte Hep G2. Those cell lines were cultured in high-glucose Dulbecco's modified Eagle's medium (DMEM) containing 10% fetal bovine serum (FBS), 4 mM L-glutamine, 2 mM sodium pyruvate and 1% penicillin/streptomycin (Invitrogen GibcoBRL, Carlsbad, Calif., USA) at 37° C. under 5% CO2. Cells were plated at 3×10^5 per well (6-well plate). 24 h after plating, cells were treated with indicated compounds for 30 min followed by cell lysis and western blot analysis. Equal amount of protein were separated by SDS-PAGE and then electroblotted on to PVDF membranes. Membranes were blocked with 3% BSA in PBS for 60 min and incubated with anti-phospho-AMPK (Thr172) antibody (1:2,000, Cell signaling), anti-AMPK antibody (1:2,000, Cell signaling), anti-Glut4 antibody (1:1,000, Millipore) or anti-actin antibody (1:5,000; Chemicon International) at 4° C. overnight followed by the corresponding secondary antibody for 1 h at room temperature (RT). Immunoreactive bands were detected by enhanced chemiluminescence (ECL; Pierce, Rockford, Ill., USA) and recorded using Kodakfilm (Rochester, N.Y., USA). The detected signals were scanned and then quantified by using TotalLab Quant software (TotalLab).

[2] = test system: AMPK; assay: AMPK activation assay (western blot phospho-AMPK Thr172) in 3T3-L1; format: cell-based, mouse; settings: 3T3-L1 cells, 30 min treatment
Description: as §1

[3] = test system: AMPK; assay: AMPK activation assay (western blot phospho-AMPK Thr172) in Hep G2; format: cell-based, human; settings: Hep G2 cells, 30 min treatment
Description: as §1

SMILES	AMPK activation (% to control) C2C12 ([1]; 1 microM)	AMPK activation (% to control) C2C12 ([1]; 10 microM)	AMPK activation (% to control) C2C12 ([1]; 100 microM)	AMPK activation (% to control) C2C12 ([1]; 200 microM)	AMPK activation (% to control) 3T3-L1 ([2]; 1 microM)	AMPK activation (% to control) 3T3-L1 ([2]; 10 microM)	AMPK activation (% to control) 3T3-L1 ([2]; 100 microM)	AMPK activation (% to control) 3T3-L1 ([2]; 200 microM)	AMPK activation (% to control) Hep G2 ([3]; 1 microM)	AMPK activation (% to control) Hep G2 ([3]; 10 microM)	AMPK activation (% to control) Hep G2 ([3]; 100 microM)	AMPK activation (% to control) Hep G2 ([3]; 200 microM)
Nc1nc(S)c2[nH]cnc2n1 [Example 2-amino-6-mercaptopurine, 2-amino-6-mercaptopurine]	118 % to control	122 % to control	228 % to control	284 % to control	105 % to control	119 % to control	251 % to control	277 % to control	112 % to control	124 % to control	209 % to control	261 % to control
CNc1nc(N)nc2nc[nH]c12 [Example 2-amino-6-methylaminopurine, 2-amino-6-methylaminopurine]	119 % to control	187 % to control	215 % to control	351 % to control	109 % to control	135 % to control	220 % to control	332 % to control	114 % to control	139 % to control	230 % to control	348 % to control
Nc1nc(NCc2ccccc2)nc2nc[nH]c12 [Example 2-benzylamino-6-aminopurine, 2-benzylamino-6-aminopurine]	110 % to control	128 % to control	259 % to control	312 % to control	119 % to control	147 % to control	217 % to control	308 % to control	105 % to control	116 % to control	235 % to control	364 % to control
Nc1nc(Br)nc2nc[nH]c12 [Example 2-bromoadenine, 2-bromoadenine]	116 % to control	172 % to control	263 % to control	349 % to control	119 % to control	188 % to control	277 % to control	361 % to control	113 % to control	190 % to control	253 % to control	354 % to control
O=c1[nH]c(Br)nc2nc[nH]c12 [Example 2-bromohypoxanthine, 2-bromohypoxanthine]	108 % to control	142 % to control	214 % to control	321 % to control	111 % to control	176 % to control	245 % to control	357 % to control	110 % to control	160 % to control	242 % to control	359 % to control
Oc1nc(Cl)nc2nc[nH]c12 [Example 2-chloro-6-hydroxypurine, 2-chloro-6-hydroxypurine]	109 % to control	156 % to control	277 % to control	331 % to control	108 % to control	145 % to control	243 % to control	356 % to control	110 % to control	163 % to control	249 % to control	375 % to control
Nc1nc(Cl)nc2nc[nH]c12 [Example 2-chloroadenine, 2-chloroadenine]	110 % to control	155 % to control	284 % to control	326 % to control	118 % to control	143 % to control	271 % to control	311 % to control	116 % to control	139 % to control	220 % to control	314 % to control
Nc1nc(F)nc2nc[nH]c12 [Example 2-fluoroadenine, 2-fluoroadenine]	102 % to control	112 % to control	213 % to control	303 % to control	114 % to control	165 % to control	291 % to control	323 % to control	117 % to control	180 % to control	259 % to control	315 % to control
Oc1nc(NCc2ccccc2)c2[nH]cnc2n1 [Example 2-hydroxy-6-benzylaminopurine, 2-hydroxy-6-benzylaminopurine]	108 % to control	135 % to control	244 % to control	356 % to control	115 % to control	126 % to control	230 % to control	309 % to control	109 % to control	137 % to control	261 % to control	338 % to control
